Measurements: the SangsterLogP compilation
Each block holds one compound with its values, some of them ahead of it. Peptide text beside a SMILES is read from it. * marks the point of attachment. NHtBu = CC(C)(C)N*

Assays:
[1] = method code SF-AS, from Falk, M.; Luecke, L. (1989). Transport of substances through lipid membranes. 11. Effect of esterification on the dissociation and permeation of orotic acid. Pharmazie, 44(9)647.; conditions: pH 1.2
[2] = method code SF-HPLC, from Yu, G.; Xu, X. (1993). Determination of the 1-octanol/water partition coefficient of nitro-PAHs. Huanjing Huaxue, 12(4)299-303.
[3] = method code SF-RC, from DOI: 10.1023/a:1015892313856, PMID: 1495896; conditions: pH 2.0
[4] = not given; remark: listed apart in the source
[5] = method code SF, from DOI: 10.1016/0378-5173(90)90261-2; conditions: pH 3.0
[6] = method code SF-AS, from DOI: 10.1016/0223-5234(94)90063-9; conditions: pH 2.0
[7] = not given; remark: listed apart in the source
[8] = not given; remark: listed apart in the source
[9] = method code SF-AS, from DOI: 10.1016/0378-5173(86)90115-8
[10] = not given; remark: listed apart in the source
[11] = not given; remark: listed apart in the source
[12] = method code SF-AS, from DOI: 10.1021/jm00395a009, PMID: 3681892; conditions: pH 7.4
[13] = not given; remark: listed apart in the source
[14] = method code SF-AS, from DOI: 10.1021/jf60220a002
[15] = method code SF, from DOI: 10.1248/cpb.39.1346, PMID: 1914012
[16] = not given; remark: listed apart in the source
[17] = not given; remark: listed apart in the source
[18] = method code SF-HPLC, from DOI: 10.1016/0378-5173(88)90064-6; conditions: pH 7.4
[19] = not given; remark: listed apart in the source
[20] = not given; remark: listed apart in the source
[21] = not given; remark: listed apart in the source

logD [1]: 2.6
SMILES: CCCCCCCCOC(=O)c1cc(=O)[nH]c(=O)[nH]1

logP [4]: -1.25
SMILES: CC(=O)OCC1OC(n2ccc(N)nc2=O)C(O)C1O (stereo not given)

logD [5]: 3.63
SMILES: O=C(O)CCCCCCc1ccccc1

logD [6]: 1.17
SMILES: Cn1c(CC(=O)O)cnc1C(=O)c1ccc(Cl)cc1

logP [8]: 3.53
SMILES: CC1=C(C)C(O)N(c2ccc(C(F)(F)F)c(Cl)c2)C1=O (stereo not given)

logD [12]: 1.51
SMILES: CC(=O)OCC1OC(n2ccc(=O)n(Cc3ccccc3)c2=O)C(OC(C)=O)C1OC(C)=O (stereo not given)

logD [6]: 0.11
SMILES: COc1ccc(C(=O)c2ncc(CC(=O)O)n2C)cc1

logP [4]: 0.45
SMILES: CC(=O)OC[C@H]1O[C@@H](n2cc(C)c(=O)[nH]c2=O)C[C@@H]1N=[N+]=[N-]

logP [4]: 0.8
SMILES: Cc1cn(C2CC(N=[N+]=[N-])C(COC(=O)c3ccncc3)O2)c(=O)[nH]c1=O (stereo not given)

logD [5]: 3.27
SMILES: O=C(O)CCCCCc1ccccc1

logP [15]: -0.46
SMILES: O=[N+]([O-])c1cccc(O[C@@H]2O[C@H](CO)[C@@H](O)[C@H](O)[C@H]2O)c1

logP: 3.66
SMILES: O=S(=O)(Nc1ccc(Cl)cc1)c1cc(Cl)cc(Cl)c1O

logP [17]: 2.85
SMILES: CCCCCCC1(c2ccncc2)CCC(=O)NC1=O (stereo not given)

logD [18]: 2.01
SMILES: CC(=O)c1ccc2cc(C(C)C(=O)OCC(=O)N(C)CCO)ccc2c1 (stereo not given)

logP [17]: 0.07
SMILES: CC1(c2ccncc2)CCC(=O)NC1=O (stereo not given)

logP [8]: 0.51
SMILES: CC1=C(C)C(O)N(c2cccc(N)c2)C1=O (stereo not given)

logD [12]: -0.3
SMILES: COC1OC(n2ccc(=O)[nH]c2=O)C(OC)C1OC (stereo not given)

logP [20]: 2.6
SMILES: O=C(CCCN1CCC(O)(c2ccc(I)cc2)CC1)c1ccc(F)cc1

The remaining lines, values behind:

SMILES: O=S(=O)(Nc1ccccc1)c1c(O)c(Cl)cc(Cl)c1Cl
logP: 3.74

SMILES: O=[N+]([O-])c1cccc(-c2ccccc2)c1
logP [2]: 3.69

SMILES: CC(=O)NC(C)C(=O)NC(CCC(N)=O)C(=O)NC(C)C(=O)NC(C)(C)C (stereo not drawn) (Ac-Ala-Gln-Ala-NHtBu; configuration not given here)
logD [3]: -0.67

SMILES: O=[N+]([O-])c1c2ccccc2cc2ccccc12
logP [2]: 4.21

SMILES: CC12CCC(c3c1ssc3=S)C2(C)C (stereo not given)
logP [7]: 3.7

SMILES: S=c1ssc(-c2ccccc2)c1-c1ccccc1
logP [7]: 4.2

SMILES: CN(C(=O)CCO)c1ccc(S(=O)(=O)N(C)C)cc1
logP [9]: -0.26

SMILES: Clc1cc2c(oc3cc(Cl)c(Cl)c(Cl)c32)c(Cl)c1Cl
logP [10]: 6.6

SMILES: CCCCC(=O)N(C)c1ccc(S(=O)(=O)N(C)C)cc1
logP [9]: 1.63

SMILES: COc1ccc(C(C(=O)O)C(C)C)cc1 (stereo not given)
logP [11]: 2.5

SMILES: Clc1cc2oc3cc(Cl)c(Cl)c(Cl)c3c2c(Cl)c1Cl
logP [13]: 7.57

SMILES: CCNP(=O)(OCC)ON=C(C#N)c1ccc([N+](=O)[O-])cc1 (stereo not given)
logP [14]: 1.76

SMILES: Brc1ccc(-c2cc(Br)ccc2Br)c(Br)c1
logP [16]: 6.49

SMILES: CCOP(=O)(NC)O/N=C(/C#N)c1ccc(Cl)cc1 (stereo not given)
logP [14]: 2.5

SMILES: Brc1c(Br)c(Br)c(Oc2c(Br)c(Br)c(Br)c(Br)c2Br)c(Br)c1Br
logP [16]: 9.56

SMILES: CN(C(=O)CCC#N)c1ccc(S(=O)(=O)N(C)C)cc1
logP [9]: -0.17

SMILES: Clc1cc2oc3c(Cl)c(Cl)c(Cl)c(Cl)c3c2cc1Cl
logP [10]: 6.6

SMILES: O=C(O)CCCCCCCc1ccccc1
logD [5]: 4.09

SMILES: COc1ccc(C(c2ccc(OC)cc2)C(Cl)Cl)cc1
logP [19]: 3.78

SMILES: CCNP(=O)(OCC)O/N=C(/C#N)c1ccc(OC)cc1 (stereo not given)
logP [14]: 2.39

SMILES: O=C(O)c1cc(Oc2ccc(C(F)(F)F)cc2Cl)ccc1[N+](=O)[O-]
logP [21]: 4.26

SMILES: CC(C)C(C(=O)O)c1ccc(OC(F)F)cc1 (stereo not given)
logP [11]: 3.03
